From PubChem BioAssay (NCI)
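Briefly, cells in 96-well plates were exposed to five compound concentrations for 48 h, and endpoints were estimated by linear interpolation. The concentration for 50% growth inhibition is given as GI50. TGI: concentration producing complete growth inhibition.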

What was measured:
Test in all cases: inhibition of tumour cell growth, NCI panel, 48 h
HOP-62 NSCLC = system: HOP-62 NSCLC
NCI-H226 lung = system: NCI-H226 lung
SK-MEL-5 melanoma = system: SK-MEL-5 melanoma
A498 renal = system: A498 renal
786-0 renal = system: 786-0 renal
UO-31 renal = system: UO-31 renal
CAKI-1 renal = system: CAKI-1 renal
SNB-19 CNS = system: SNB-19 CNS
A549 NSCLC = system: A549 NSCLC
HCC-2998 colon = system: HCC-2998 colon
SF-268 CNS = system: SF-268 CNS
CCRF-CEM leukemia = system: CCRF-CEM leukemia
SF-539 CNS = system: SF-539 CNS
OVCAR-3 ovarian = system: OVCAR-3 ovarian
RXF 393 renal = system: RXF 393 renal
SW-620 colon = system: SW-620 colon
DU-145 prostate = system: DU-145 prostate
SNB-75 CNS = system: SNB-75 CNS
NCI-H460 lung = system: NCI-H460 lung
UACC-257 melanoma = system: UACC-257 melanoma
HCT-116 colon = system: HCT-116 colon
PC-3 prostate = system: PC-3 prostate
OVCAR-4 ovarian = system: OVCAR-4 ovarian
BT-549 breast = system: BT-549 breast
NCI-H23 lung = system: NCI-H23 lung
SR leukemia = system: SR leukemia
NCI/ADR-RES ovarian = system: NCI/ADR-RES ovarian
MDA-MB-435 = system: MDA-MB-435
IGROV1 ovarian = system: IGROV1 ovarian
OVCAR-8 ovarian = system: OVCAR-8 ovarian
TK-10 renal = system: TK-10 renal
HOP-92 NSCLC = system: HOP-92 NSCLC
HCT-15 colon = system: HCT-15 colon
SK-MEL-2 melanoma = system: SK-MEL-2 melanoma
HL-60(TB) leukemia = system: HL-60(TB) leukemia
U251 CNS = system: U251 CNS
ACHN renal = system: ACHN renal
HT29 colon = system: HT29 colon
EKVX NSCLC = system: EKVX NSCLC
SK-OV-3 ovarian = system: SK-OV-3 ovarian
OVCAR-5 ovarian = system: OVCAR-5 ovarian
RPMI-8226 leukemia = system: RPMI-8226 leukemia
MOLT-4 leukemia = system: MOLT-4 leukemia
MALME-3M melanoma = system: MALME-3M melanoma
SK-MEL-28 melanoma = system: SK-MEL-28 melanoma
M14 melanoma = system: M14 melanoma
SF-295 CNS = system: SF-295 CNS
UACC-62 melanoma = system: UACC-62 melanoma
SN12C renal = system: SN12C renal
KM12 colon = system: KM12 colon
T-47D breast = system: T-47D breast
COLO 205 colon = system: COLO 205 colon
K-562 leukemia = system: K-562 leukemia
MCF7 breast = system: MCF7 breast
HS 578T breast = system: HS 578T breast
MDA-MB-231 breast = system: MDA-MB-231 breast
NCI-H522 lung = system: NCI-H522 lung
LOX IMVI melanoma = system: LOX IMVI melanoma

## CCN(CC)c1ccc(/C=N/NC(=O)c2ccc(S(C)(=O)=O)cc2)c(O)c1
HOP-62 NSCLC
  GI50: 156 nM
  TGI: > 57900 nM
NCI-H226 lung
  GI50: 174 nM
  TGI: 5190 nM
SK-MEL-5 melanoma
  GI50: 330 nM
  TGI: 2490 nM
A498 renal
  GI50: 4980 nM
  TGI: > 100000 nM
786-0 renal
  GI50: 246 nM
  TGI: > 100000 nM
UO-31 renal
  GI50: 200 nM
  TGI: 3490 nM
CAKI-1 renal
  GI50: 199 nM
  TGI: > 100000 nM
SNB-19 CNS
  GI50: 560 nM
  TGI: > 100000 nM
A549 NSCLC
  GI50: 542 nM
  TGI: > 100000 nM
HCC-2998 colon
  GI50: 292 nM
  TGI: > 100000 nM
SF-268 CNS
  GI50: 167 nM
  TGI: > 100000 nM
CCRF-CEM leukemia
  GI50: 82.5 nM
  TGI: > 100000 nM
SF-539 CNS
  GI50: 287 nM
  TGI: 12000 nM
OVCAR-3 ovarian
  GI50: 177 nM
  TGI: > 100000 nM
RXF 393 renal
  GI50: 452 nM
  TGI: > 62100 nM
SW-620 colon
  GI50: 438 nM
  TGI: > 100000 nM
DU-145 prostate
  GI50: 308 nM
  TGI: > 100000 nM
SNB-75 CNS
  GI50: 292 nM
  TGI: > 29300 nM
NCI-H460 lung
  GI50: 179 nM
  TGI: 16000 nM
UACC-257 melanoma
  GI50: 340 nM
  TGI: 5600 nM
HCT-116 colon
  GI50: 186 nM
  TGI: > 100000 nM
PC-3 prostate
  GI50: 409 nM
  TGI: > 100000 nM
OVCAR-4 ovarian
  GI50: 139 nM
  TGI: > 80300 nM
BT-549 breast
  GI50: 596 nM
  TGI: > 39900 nM
NCI-H23 lung
  GI50: 537 nM
  TGI: > 100000 nM
SR leukemia
  GI50: 97.2 nM
  TGI: > 100000 nM
NCI/ADR-RES ovarian
  GI50: 467 nM
  TGI: > 44400 nM
MDA-MB-435
  GI50: 605 nM
  TGI: > 100000 nM
IGROV1 ovarian
  GI50: 292 nM
  TGI: > 100000 nM
OVCAR-8 ovarian
  GI50: 320 nM
  TGI: > 69500 nM
TK-10 renal
  GI50: 356 nM
  TGI: > 100000 nM
HOP-92 NSCLC
  GI50: 439 nM
  TGI: 32900 nM
HCT-15 colon
  GI50: 120 nM
  TGI: > 100000 nM
SK-MEL-2 melanoma
  GI50: 777 nM
  TGI: > 100000 nM
HL-60(TB) leukemia
  GI50: 288 nM
  TGI: 3010 nM
U251 CNS
  GI50: 238 nM
  TGI: > 41000 nM
ACHN renal
  GI50: 179 nM
  TGI: > 100000 nM
HT29 colon
  GI50: 469 nM
  TGI: > 100000 nM
EKVX NSCLC
  GI50: 222 nM
  TGI: > 100000 nM
SK-OV-3 ovarian
  GI50: 251 nM
  TGI: 57800 nM
OVCAR-5 ovarian
  GI50: 2860 nM
  TGI: > 100000 nM
RPMI-8226 leukemia
  GI50: 399 nM
  TGI: > 100000 nM
MOLT-4 leukemia
  GI50: 253 nM
  TGI: > 100000 nM
MALME-3M melanoma
  GI50: 491 nM
  TGI: > 82400 nM
SK-MEL-28 melanoma
  GI50: 362 nM
  TGI: > 100000 nM
M14 melanoma
  GI50: 210 nM
  TGI: 2450 nM
SF-295 CNS
  GI50: 259 nM
  TGI: > 100000 nM
UACC-62 melanoma
  GI50: 306 nM
  TGI: 15100 nM
SN12C renal
  GI50: 415 nM
  TGI: > 100000 nM
KM12 colon
  GI50: 418 nM
  TGI: > 100000 nM
T-47D breast
  GI50: 444 nM
  TGI: > 100000 nM
COLO 205 colon
  GI50: 297 nM
  TGI: > 100000 nM
K-562 leukemia
  GI50: 900 nM
  TGI: > 100000 nM
MCF7 breast
  GI50: 300 nM
  TGI: > 100000 nM
HS 578T breast
  GI50: 6440 nM
  TGI: > 100000 nM
MDA-MB-231 breast
  GI50: 347 nM
  TGI: > 100000 nM
NCI-H522 lung
  GI50: 455 nM
  TGI: > 100000 nM
LOX IMVI melanoma
  GI50: 150 nM
  TGI: 2760 nM
